{"source": "patent US20250122193A1", "about": "“NOVEL PYRIDOCARBAZOLIUM COMPOUNDS AND MEDICAL USES THEREOF” (MyCural Therapeutics, priority 2021, published 2025)", "key": {"[1]": {"test": "oxidative metabolism in mouse liver microsomes", "from_the_text": "(§1) First, we performed a pharmacokinetic study of the behavior of the molecule in mice."}, "[2]": {"system": "primary normal human epidermal melanocytes (NHEM)", "test": "cell growth and trypan blue viability, NHEM", "assay_type": "cell-based", "settings": "72 hours", "description": "FIG. 4: MYCMI-7 induces apoptosis in malignant cells and growth arrest in normal cells. A) Cell cycle distribution analysis by flow cytometry of MYC-regulated P493-6 cells and normal rat embryo fibroblasts (REFs). Left panel, P493-6 synchronized in G0 by 24 hours treatment of […] doxycycline. Doxycycline was removed and the cells were harvested 48 hours after the addition of fresh medium containing DMSO or 5 μM MYCMI-7. Right panel, flow cytometry analysis of normal REFs treated with DMSO or 5 μM MYCMI-7. B) Apoptosis assay using the Cell Death Detection ELISA^plus kit. Left panel, immortalized Rat1 fibroblasts with different MYC status after 24 hours of 5 μM MYCMI-7 treatment, middle panel and right panels, normal REFs and normal peripheral blood lymphocytes, respectively, after 24 and 48 hours of 5 μM MYCMI-7 treatment. C) Measurement of viability and apoptosis by Apo-Tox Glo Triplex assay in A375 melanoma cells after 3 days of treatment with MYCMI-7 with the indicated concentrations. […] E) NHDFs treated with 3 μM MYCMI-7 for 72 hrs. Viability was measured by trypan blue exclusion assay. F) Cell growth measured with Cyt62 assay of primary normal human epidermal melanocytes (NHEM) treated for 72 hours with MYCMI-7, G) Viability measured by trypan blue exclusion assay of NHEM after treatment for 72 hours with MYCMI-7."}, "[3]": {"test": "oxidative metabolism in human liver microsomes", "from_the_text": "as §1"}}}
{"smiles": "CCN(CC)CC[n+]1ccc2c(C)c3[nH]c4ccccc4c3c(C)c2c1", "note": "[MYCMI-7, 2-(5,11-Dimethyl-6H-25-pyrido[4,3-b]carbazol-2-yl)-N,N-diethylethanamine bromide]", "values": [{"measurement": "stability against oxidative metabolism", "setting": "[1]", "result": "stable"}, {"measurement": "cell death (trypan blue)", "setting": "[2]", "result": "did not induce cell death"}, {"measurement": "metabolic activity", "setting": "[2]", "result": "reduced metabolic activity"}, {"measurement": "stability against oxidative metabolism", "setting": "[3]", "result": "stable"}]}
